Experiments:
[1] = system: HCC1806-XRCC1 KD (knock down) cells; experiment: Cellular viability assay (Cell Titer-Glo); type: cell-based; conditions: 96 h, HCC1806-shXRCC1 cells, 4 days of incubation, read-out: PARGi cell viability
Procedure, shortened: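 XRCC1-knockdown HCC1806 cells seeded 24 h before dosing; 9-point 1:3 dilution from 30 μM top concentration, duplicates, 4-day incubation. Viability by CellTiter-Glo luminescence, normalized to DMSO wells as % of control; curves fit with 4-parameter inhibition model.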

PARG [2] = target: T1, PARG (Homo sapiens, UniProt Q86W56); experiment: Inhibition of PARG enzymatic assay (TR-FRET enzymatic IC50 assay); type: biochemical; parameters: purchased Peak Proteins; conditions: hPARG 250 pM, biotinylated-PARylated PARP substrate 30 nM
T1 sequence (Q86W56 whole entry): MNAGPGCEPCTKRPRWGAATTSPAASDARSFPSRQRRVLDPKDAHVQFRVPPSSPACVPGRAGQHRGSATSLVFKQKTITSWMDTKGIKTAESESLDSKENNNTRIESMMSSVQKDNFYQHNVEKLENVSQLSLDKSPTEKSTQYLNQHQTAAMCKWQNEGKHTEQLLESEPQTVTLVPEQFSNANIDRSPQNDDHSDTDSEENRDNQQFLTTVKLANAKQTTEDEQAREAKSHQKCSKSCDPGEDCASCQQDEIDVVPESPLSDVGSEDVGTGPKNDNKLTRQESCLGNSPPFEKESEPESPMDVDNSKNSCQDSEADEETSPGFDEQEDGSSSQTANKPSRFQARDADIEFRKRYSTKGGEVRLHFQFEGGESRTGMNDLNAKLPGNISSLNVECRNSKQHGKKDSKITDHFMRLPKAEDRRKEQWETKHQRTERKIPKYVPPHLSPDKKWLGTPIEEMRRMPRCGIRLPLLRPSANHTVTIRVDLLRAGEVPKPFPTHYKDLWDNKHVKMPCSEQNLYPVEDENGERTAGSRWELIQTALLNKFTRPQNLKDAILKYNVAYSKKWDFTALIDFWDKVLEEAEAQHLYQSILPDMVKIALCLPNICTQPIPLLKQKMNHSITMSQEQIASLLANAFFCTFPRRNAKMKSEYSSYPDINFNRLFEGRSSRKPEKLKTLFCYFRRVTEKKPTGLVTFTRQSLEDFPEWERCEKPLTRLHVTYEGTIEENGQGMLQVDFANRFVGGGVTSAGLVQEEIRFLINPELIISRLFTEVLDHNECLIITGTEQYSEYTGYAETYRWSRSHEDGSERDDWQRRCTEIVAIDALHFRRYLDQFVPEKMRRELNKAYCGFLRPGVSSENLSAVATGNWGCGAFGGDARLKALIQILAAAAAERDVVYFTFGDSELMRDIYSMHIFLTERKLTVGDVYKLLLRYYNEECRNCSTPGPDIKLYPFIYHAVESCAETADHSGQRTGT
Procedure, shortened: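 Compound preincubated 1 h with 250 pM His-tagged hPARG, then 30 nM biotinylated PARylated hPARP1 substrate added for 10 min; buffer 50 mM Tris-HCl pH 7.4, EDTA/EGTA, 1 mM DTT, 23° C. TR-FRET read after 1 h with anti-His ULight antibody and streptavidin-europium; inhibition scaled between DMSO and no-enzyme controls.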

PARG [3] = target: T1, PARG; experiment: Inhibition of PARG cellular assay (PAR foci in HeLa cells after MMS); type: cell-based; parameters: endogenous in cells; host or cells: HeLa; conditions: compound 1 h then MMS 1 h
Procedure, shortened: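 HeLa cells pretreated with compound for 1 h, then given MMS for a further 1 h, fixed and immunostained for PAR polymer. High-content imaging quantified nuclear PAR foci intensity (PAR Foci IC50) and percent cells with foci signal >1.3 (PAR % positive IC50).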

IC50 [1] [µM]	IC50 (PARG [2]) [µM]	IC50 (PARG [3]) [µM]	SMILES
1 to 10	≤ 0.1	≤ 0.1	N#CC1(NS(=O)(=O)c2cc(N3CCN(C(=O)c4ccccc4)CC3)c3cnn(-c4nnc(C(F)F)s4)c3c2)CC1 [Example 96, 1-[({1-[5-(difluoromethyl)(1,3,4-thiadiazol-2-yl)]-4-[4-(phenylcarbonyl)piperazinyl]-1H-indazol-6-yl}sulfonyl)amino]cyclopropanecarbonitrile]
< 1	≤ 0.1	≤ 0.1	CC(C)C(=O)N1CCN(c2cc(S(=O)(=O)NC3(C#N)CC3)cc3c2ccn3-c2nnc(C(F)F)s2)CC1 [Example 28, 1-[({1-[5-(difluoromethyl)(1,3,4-thiadiazol-2-yl)]-4-[4-(2-methylpropanoyl)piperazinyl]indol-6-yl}sulfonyl)amino]cyclopropanecarbonitrile]
1 to 10	≤ 0.1	0.1 to 0.3	N#CC1(NS(=O)(=O)c2cc(N3CCN(c4cccnn4)CC3)c3cnn(-c4nnc(C(F)F)s4)c3c2)CC1 [Example 95, 1-[({1-[5-(difluoromethyl)(1,3,4-thiadiazol-2-yl)]-4-(4-pyridazin-3-ylpiperazinyl)-1H-indazol-6-yl}sulfonyl)amino]cyclopropanecarbonitrile]
1 to 10	≤ 0.1	0.3 to 1	N#CC1(NS(=O)(=O)c2cc(N3CCC(O)CC3)c3cnn(-c4nnc(C(F)F)s4)c3c2)CC1 [Example 27, 1-[({1-[5-(difluoromethyl)(1,3,4-thiadiazol-2-yl)]-4-(4-hydroxypiperidyl)-1H-indazol-6-yl}sulfonyl)amino]cyclopropanecarbonitrile]
1 to 10	0.1 to 0.3	1 to 10	CC(C)C(=O)N1CCN(c2cc(S(=O)(=O)NC(C)(C)C)cc3c2cnn3-c2nnc(C(F)F)s2)CC1 [Example 99, 1-[4-(1-[5-(difluoromethyl)(1,3,4-thiadiazol-2-yl)]-6-{[(tert-butyl)amino]sulfonyl}(1H-indazol-4-yl))piperazinyl]-2-methylpropan-1-one]
1 to 10	≤ 0.1	≤ 0.1	N#CC1(NS(=O)(=O)c2cc(N3CCN(C(=O)C4CC4)CC3)c3cnn(-c4nnc(C(F)F)s4)c3c2)CC1 [Example 80, 1-[({1-[5-(difluoromethyl)(1,3,4-thiadiazol-2-yl)]-4-[4-(cyclopropylcarbonyl)piperazinyl]-1H-indazol-6-yl}sulfonyl)amino]cyclopropanecarbonitrile]
1 to 10	0.1 to 0.3	1 to 10	CC(C)NS(=O)(=O)c1cc(N2CCN(C(=O)C(C)C)CC2)c2cnn(-c3nnc(C(F)F)s3)c2c1 [Example 98, 1-[4-(1-[5-(difluoromethyl)(1,3,4-thiadiazol-2-yl)]-6-{[(methylethyl)amino]sulfonyl}(1H-indazol-4-yl))piperazinyl]-2-methylpropan-1-one]
10 to 20	≤ 0.1	1 to 10	CNC(=O)C1CCN(c2cc(S(=O)(=O)NC3(C#N)CC3)cc3c2cnn3-c2nnc(C(F)F)s2)CC1 [Example 40, [1-(1-[5-(difluoromethyl)(1,3,4-thiadiazol-2-yl)]-6-{[(cyanocyclopropyl)amino]sulfonyl}(1H-indazol-4-yl))(4-piperidyl)]-N-methylcarboxamide]
< 1	≤ 0.1	≤ 0.1	CN(C)C(=O)N1CCN(c2cc(S(=O)(=O)NC3(C#N)CC3)cc3c2cnn3-c2nnc(C(F)F)s2)CC1 [Example 43, [4-(1-[5-(difluoromethyl)(1,3,4-thiadiazol-2-yl)]-6-{[(cyanocyclopropyl)amino]sulfonyl}(1H-indazol-4-yl))piperazinyl]-N,N-dimethylcarboxamide]
< 1	≤ 0.1	≤ 0.1	C[C@@H]1CN(c2cc(S(=O)(=O)NC3(C#N)CC3)cc3c2cnn3-c2nnc(C(F)F)s2)CCN1C(=O)C1(C)CC1 [Example 108, 1-{[(4-{(3R)-3-methyl-4-[(methylcyclopropyl)carbonyl]piperazinyl}-1-[5-(difluoro-methyl)(1,3,4-thiadiazol-2-yl)]-1H-indazol-6-yl)sulfonyl]amino}cyclopropane carbonitrile]
1 to 10	0.3 to 1	0.3 to 1	N#CC1(NS(=O)(=O)c2cc(N3CCC(F)CC3)c3cnn(-c4nnc(C(F)F)s4)c3c2)CC1 [Example 104, 1-[({1-[5-(difluoromethyl)(1,3,4-thiadiazol-2-yl)]-4-(4-fluoropiperidyl)-1H-indazol-6-yl}sulfonyl)amino]cyclopropanecarbonitrile]
20 to 30	1 to 10	1 to 10	N#CC1(NS(=O)(=O)c2cc(-c3ccccc3)c3cnn(-c4nnc(C(F)F)s4)c3c2)CC1 [Example 1, 1-[({1-[5-(difluoromethyl)(1,3,4-thiadiazol-2-yl)]-4-phenyl-1H-indazol-6-yl}sulfonyl)amino]cyclopropanecarbonitrile]
1 to 10	≤ 0.1	0.3 to 1	N#CC1(NS(=O)(=O)c2cc(N3CCS(=O)(=O)CC3)c3cnn(-c4nnc(C(F)F)s4)c3c2)CC1 [Example 52, N-(1-cyanocyclopropyl)-1-(5-(difluoromethyl)-1,3,4-thiadiazol-2-yl)-4-(1,1-dioxidothiomorpholino)-1H-indazole-6-sulfonamide]
1 to 10	≤ 0.1	≤ 0.1	N#CC1(NS(=O)(=O)c2cc(N3CCN(C(=O)C4CCCC4)CC3)c3cnn(-c4nnc(C(F)F)s4)c3c2)CC1 [Example 66, 1-[({1-[5-(difluoromethyl)(1,3,4-thiadiazol-2-yl)]-4-[4-(cyclopentylcarbonyl)piperazinyl]-1H-indazol-6-yl}sulfonyl)amino]cyclopropanecarbonitrile]
1 to 10	0.1 to 0.3	0.3 to 1	N#CC1(NS(=O)(=O)c2cc(N3C[C@H]4COC[C@H]4C3)c3cnn(-c4nnc(C(F)F)s4)c3c2)CC1 [Example 48, 1-[({4-((1S,5R)-7-oxa-3-azabicyclo[3.3.0]oct-3-yl)-1-[5-(difluoromethyl)(1,3,4-thiadiazol-2-yl)]-1H-indazol-6-yl}sulfonyl)amino]cyclopropanecarbonitrile]
1 to 10	≤ 0.1	0.1 to 0.3	CN1CC2CN(c3cc(S(=O)(=O)NC4(C#N)CC4)cc4c3cnn4-c3nnc(C(F)F)s3)CCN2C1=O (single isomer, unassigned) [Example 71, 1-[({4-(8-methyl-7-oxo-3,6,8-triazabicyclo[4.3.0]non-3-yl)-1-[5-(difluoromethyl)-(1,3,4-thiadiazol-2-yl)]-1H-indazol-6-yl}sulfonyl)amino]cyclopropane carbonitrile]
1 to 10	0.1 to 0.3	0.3 to 1	N#CC1(NS(=O)(=O)c2cc(N3CCOCC3)c3cnn(-c4nnc(C(F)F)s4)c3c2)CC1 [Example 100, 1-[({1-[5-(difluoromethyl)(1,3,4-thiadiazol-2-yl)]-4-morpholin-4-yl-1H-indazol-6-yl}sulfonyl)amino]cyclopropanecarbonitrile]
